Common to all, as to type: in vivo
Data set [1] deals with N171-82Q HD mice. The data set can be described thus: Chronic 6-week treatment: echocardiography and heart weight. The following applies: N171-82Q mice, 160 mg/kg daily 6 weeks. From the text:
Animals were sacrificed by live decapitation one hour after the last oral dosing. Whole hearts were excised, blot-dried and weighed on an analytical balance. The heart was bisected transversely and the apical halves was preserved for cardiomyocyte and fibrosis staining. Left tibias were isolated and measured with an electronic caliper. The brain left hemisphere was preserved for MSN size measurement. The brain right hemisphere was microdissected and the medial pre-frontal cortex, striatum, cortex, hippocampus and cerebellum were collected.
Mice were anesthetized with 2% isoflurane and restrained on a stage with electrocardiogram (EKG) sensors. Transthoracic echocardiograms were performed using the Vevo 3100 Imaging System with a linear array MX550D transducer. Images were acquired by an experienced echocardiographer and then analyzed offline using the Vevo LAB analysis software. Parasternal long axis views and short axis views were used to assess left ventricular function. Measurements were performed to evaluate left ventricular dimensions during both systole and diastole of the cardiac cycle. The Vevo LAB left ventricle [LV] analysis tool, LV trace, was used to calculate cardiac output [CO] (heart rate ∙ stroke volume), fractional shortening [FS] (ventricle diameter at the end of the diastole–ventricle diameter at the end of the systole), ejection fraction [EF] (percentage of blood ejected by the left ventricle by heart beat), stroke volume (SV) (blood volume ejected from the left ventricle per beat), heart rate [HR] (bpm), left ventricular mass [LVmass], dimensions and volumes. Both imaging and analysis were performed by an operator blinded to the mice experimental treatment.
Fig 5 Oral dosing with NV-5297 over 6 weeks improves cardiac function and activates the mTORC1 pathway. […] (E) Quantification of the immunoblots for homogenized heart isolated 1 hour after oral dosing with NV-5297 (160 mg/kg; n = 14) normalized to loading control levels and further normalized to vehicle (Veh) treated mice (n = 15). […]

The subject of data set [2] is N171-82Q HD mice. The experiment in a line: Chronic 6-week treatment: striatal volume and MSN area (DARPP-32 histology). The following applies: N171-82Q mice, 160 mg/kg daily 6 weeks. The procedure:
Mice were perfused with PBS, and tissues were fixed in 4% paraformaldehyde for at least 48 hours. Brains were cryoprotected in a 30% sucrose solution for 24 hours and cryosectioned to 40 μm on a Leica SM2010R microtome. Each section through the striatum was collected and floated out in 30% ethylene glycol/15% sucrose solution sequentially in a 12-well plate. Once sections had been placed in each well, deeper sequential sections were added to wells in the same order, leading to each well containing 7 sections, 480 μm apart. Hearts were bisected transversely, and the apical halves were processed and embedded in paraffin. Heart tissue was sectioned to 5 μm on a Microm HM 355S (Thermo) microtome. […]
Striatal volume were estimated by the Cavalieri method on low-power digital images of DARPP-32-stained sections in ImageJ. A 5000 μm^2 area-per-point grid was superimposed randomly over the image, and number of points overlapping the striatum in each section (5 per animal) was counted. The volume was then calculated using the formula V = ∑p∙t∙A(p), where V = estimated volume, p = points per section, t = space between sections, and A(p) = area-per-point. […]
Average MSN area was calculated from high-power digital images of DARPP-32-stained sections in ImageJ. […] At least 700 cells were measured per brain, and the average MSN area was determined per treatment group.

In data set [3] the test system is N171-82Q HD mice. The data set can be described thus: Chronic 6-week treatment: weight, forelimb grip strength, accelerating rotarod. The following applies: N171-82Q mice. The procedure: The initial trial consisted in one week of oral dosing in 12 weeks old N171-82Q males. The chronic 6 weeks treatment (Veh n = 15, NV-5297 n = 14) took place from 6 to 12 weeks of age. The cardiac stress took place in animals from 10 to 12 weeks of age (Veh-Sal n = 9, NV-Sal n = 10, Veh-Iso n = 16, NV-Iso n = 11).
The accelerated rotarod (model 47600; Ugo Basile, Comerio, Italy) test was carried out as previously described. Mice were tested at 5 (baseline) and 12 weeks of age. Briefly, mice were habituated to the test room for an hour. On the first day, mice were trained on the rotarod for 5 minutes at 4 rpm. Mice were then tested in three trials per day (with at least 30 minutes of rest between trials) for four consecutive days. For each trial, the rotarod accelerated from 4 to 40 rpm over 4 minutes with constant speed at 40 rpm for an additional minute. Trials were stopped at 300 seconds. Latency to fall (or two consecutive rotations without running) was recorded for every trial. For grip strength, mice were tested at 5 (baseline), 9 and 12 weeks of age. Mice were habituated to the test room for 1 hour. The mouse held a pull bar with both paws and are then pulled horizontally until they let go of the pull bar. Forelimb grip strength at the peak tension was measured five times per mice (Columbus Instrument). There were at least 30 minutes of rest between trials. The grip strength is calculated as the average of the four highest grip strength recorded.

The mark [4] stands for this setting: oral 160 mg/kg daily for 6 weeks.

As for `CC(C)(C[C@H](N)C(=O)O)C(F)(F)F` [NV-5297, (S)-2-amino-5,5,5-trifluoro-4,4-dimethylpentanoic acid], the heart mass entry in the data set with N171-82Q HD mice [1] is given as “no discernable effect”. Also, in the data set on N171-82Q HD mice [1] (echocardiography), the “ejection fraction compared to vehicle” value was “increased” and the “fractional shortening compared to vehicle” value is listed as “increased”. Also, in the data set with N171-82Q HD mice [2], the “medium spiny neuron area” value is listed as “no change” and the “striatal volume relative to vehicle” value was “significant increases”. Besides, in the data set on N171-82Q HD mice [3] (12 weeks of age, oral 160 mg/kg daily for 6 weeks), the “accelerating rotarod motor performance over 4-day trial” value was “improved rotarod motor performance”. Moreover, the “adverse effects to the treatment” value with N171-82Q HD mice [3] (NV-5297 treatment, response to reviewers) is “No mice had explicit adverse effects”. For the same compound, in the data set with N171-82Q HD mice [3] (setting [4]), the forelimb grip strength result is listed as “did not impact” and the weight loss result is on record as “did not impact”.

The values are drawn from article PMC9423655, “Huntington’s disease phenotypes are improved via mTORC1 modulation by small molecule therapy” (PLoS ONE, 2022).
